21 compounds from patent publication US20230357239A1, “PYRIDO[2,3-D]PYRIMIDIN-4-AMINES AS SOS1 INHIBITORS” (Bayer Aktiengesellschaft, priority 2020, published 2023) can be followed below.

Molecules are shown by their SMILES.

human SOS1 (SOS1) with human K-RasG12C, sequence (Q07889 564-1049): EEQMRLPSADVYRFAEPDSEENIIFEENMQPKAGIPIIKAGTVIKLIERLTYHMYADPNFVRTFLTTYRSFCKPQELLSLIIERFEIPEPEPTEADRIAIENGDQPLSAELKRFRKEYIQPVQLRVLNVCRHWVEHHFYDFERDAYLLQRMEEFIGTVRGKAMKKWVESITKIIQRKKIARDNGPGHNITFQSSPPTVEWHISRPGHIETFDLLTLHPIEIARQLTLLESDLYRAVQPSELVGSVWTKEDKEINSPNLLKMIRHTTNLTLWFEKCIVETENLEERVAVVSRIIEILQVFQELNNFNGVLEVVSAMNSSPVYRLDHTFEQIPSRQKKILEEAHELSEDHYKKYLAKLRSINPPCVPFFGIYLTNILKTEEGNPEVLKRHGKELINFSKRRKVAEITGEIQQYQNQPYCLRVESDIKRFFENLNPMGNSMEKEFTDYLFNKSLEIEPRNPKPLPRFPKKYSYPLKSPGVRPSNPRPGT

The target in the assay is human SOS1 (SOS1) with human K-RasG12C (Homo sapiens (Human), UniProt Q07889). The assay can be described thus: hK-RasG12C interaction assay with hSOS1 (HTRF). As to conditions: GST-hK-RasG12C and His-hSOS1, 60 min incubation at 20° C, mean, read-out: K-RasG12C - SOS interaction assay IC50 - [mol/l] (mean). It is filed as binding. The method, then:
Biochemical Assay: hK-RasG12C Interaction Assay with hSOS1
This assay quantifies the equilibrium interaction of human SOS1 (SOS1) with human K-Ras^G12C (K-RasG12C). Detection of the interaction is achieved by measuring homogenous time-resolved fluorescence resonance energy transfer (HTRF) from antiGST-Europium (FRET donor) bound to GST-K-RasG12C to anti-6His-XL665 bound to His-tagged hSOS1 (FRET-acceptor).
The assay buffer containes 5 mM HEPES pH 7.4 (Applichem), 150 mM NaCl (Sigma), 10 mM EDTA (Promega), 1 mM DTT (Thermofisher), 0.05% BSA Fraction V, pH 7.0, (ICN Biomedicals), 0.0025% (v/v) Igepal (Sigma) and 100 mM KF (FLUKA).
Concentrations of protein batches used are optimized to be within the linear range of the HTRF signal. A Ras working solution is prepared in assay buffer containing typically 10 nM GST-hK-RasG12C and 2 nM antiGST-Eu(K) (Cisbio, France). A SOS1 working solution is prepared in assay buffer containing typically 20 nM His-hSOS1 and 10 nM anti-6His-XL665 (Cisbio, France). An inhibitor control solution is prepared in assay buffer containing 10 nM anti-6His-XL665 without SOS1.
Fifty nl of a 100-fold concentrated solution of the test compound in DMSO are transferred into a black microtiter test plate (384 or 1536, Greiner Bio-One, Germany).
For this, either a Hummingbird liquid handler (Digilab, MA, USA) or an Echo acoustic system (Labcyte, CA, USA) is used.
All steps of the assay are performed at 20° C. A volume of 2.5 μl of the Ras working solution is added to all wells of the test plate using a Multidrop dispenser (Thermo Labsystems). After 2 min preincubation, 2.5 μl of the SOS1 working solution are added to all wells except for those wells at the side of the test plate that are subsequently filled with 2.5 μl of the inhibitor control solution. After 60 min incubation the fluorescence is measured with a Pherastar (BMG, Germany) using the HTRF module (excitation 337 nm, emission 1: 620 nm, emission 2: 665 nm).
The ratiometric data (emission 2 divided by emission 1) are normalized using the controls (DMSO=0% inhibition, inhibition control wells with inhibitor control solution=100% inhibition). […] IC50 values are calculated by 4-Parameter fitting using a commercial software package (Genedata Screener, Switzerland).
For orientation: TR-FRET usually uses a lanthanide donor and a delayed reading to cut background.
As to `Cc1nc(N[C@H](C)c2cccc(C(F)(F)F)c2C)c2cc(N3CC4(CN(C(N)=O)C4)C3)cnc2n1` [Example 48, 6-[2-methyl-4-({(1R)-1-[2-methyl-3-(trifluoromethyl)phenyl]ethyl}amino)pyrido[2,3-d]pyrimidin-6-yl]-2,6-diazaspiro[3.3]heptane-2-carboxamide], the IC50 stood at 9.95 nM.

Consider `CC(=O)N1C2CC1CN(c1cnc3nc(C)nc(N[C@H](C)c4cccc(C(F)(F)C(C)(C)O)c4F)c3c1)C2` [Example 49, 1-{3-[4-({(1R)-1-[3-(1,1-difluoro-2-hydroxy-2-methylpropyl)-2-fluorophenyl]ethyl}amino)-2-methylpyrido[2,3-d]pyrimidin-6-yl]-3,6-diazabicyclo[3.1.1]heptan-6-yl}ethan-1-one], for which the IC50 was 3.31 nM.

On to `CC(=O)N1C[C@@H]2C[C@H]1CN2c1cnc2nc(C)nc(N[C@H](C)c3cccc(C(F)(F)C(C)(C)O)c3F)c2c1` [Example 50, 1-{(1 S,4S)-5-[4-({(1R)-1-[3-(1,1-difluoro-2-hydroxy-2-methylpropyl)-2-fluorophenyl]ethyl}amino)-2-methylpyrido[2,3-d]pyrimidin-6-yl]-2,5-diazabicyclo[2.2.1]heptan-2-yl}ethan-1-one], for which the IC50 worked out at 2.93 nM.

Take `CC(=O)N1C[C@H]2C[C@@H]1CN2c1cnc2nc(C)nc(N[C@H](C)c3cccc(C(F)(F)C(C)(C)O)c3F)c2c1` [Example 51, 1-{(1 R,4R)-5-[4-({(1R)-1-[3-(1,1-difluoro-2-hydroxy-2-methylpropyl)-2-fluorophenyl]ethyl}amino)-2-methylpyrido[2,3-d]pyrimidin-6-yl]-2,5-diazabicyclo[2.2.1]heptan-2-yl}ethan-1-one]: the IC50 was determined as 9.79 nM.

`Cc1nc(N[C@H](C)c2cccc(C(F)(F)C(C)(C)O)c2F)c2cc(N3CCN(C)CC3)cnc2n1` [Example 52, 1,1-difluoro-1-{2-fluoro-3-[(1R)-1-{[2-methyl-6-(4-methylpiperazin-1-yl)pyrido[2,3-d]pyrimidin-4-yl]amino}ethyl]phenyl}-2-methylpropan-2-ol]: the IC50 came to 4.48 nM.

On to `CC(=O)N1CCN(c2cnc3nc(C)nc(N[C@H](C)c4cccc(C(F)(F)C(C)(C)O)c4F)c3c2)CC1` [Example 53, 1-{4-[4-({(1R)-1-[3-(1,1-difluoro-2-hydroxy-2-methylpropyl)-2-fluorophenyl]ethyl}amino)-2-methylpyrido[2,3-d]pyrimidin-6-yl]piperazin-1-yl}ethan-1-one], for which the IC50 came to 3.34 nM.

Consider `CC(=O)N1CC2(C1)CN(c1cnc3nc(C)nc(N[C@H](C)c4cccc(C(F)(F)C(C)(C)O)c4F)c3c1)C2` [Example 54, 1-{6-[4-({(1R)-1-[3-(1,1-difluoro-2-hydroxy-2-methylpropyl)-2-fluorophenyl]ethyl}amino)-2-methylpyrido[2,3-d]pyrimidin-6-yl]-2,6-diazaspiro[3.3]heptan-2-yl}ethan-1-one], for which the IC50 is 3.52 nM.

Take `CC(=O)N[C@@H]1CCN(c2cnc3nc(C)nc(N[C@H](C)c4cccc(C(F)(F)C(C)(C)O)c4F)c3c2)C1` [Example 55, N-{(3R)-1-[4-({(1R)-1-[3-(1,1-difluoro-2-hydroxy-2-methylpropyl)-2-fluorophenyl]ethyl}amino)-2-methylpyrido[2,3-d]pyrimidin-6-yl]pyrrolidin-3-yl}acetamide]: the IC50 is 4.46 nM.

Turning to `CC(=O)N1CC=C(c2cc3c(N[C@H](C)c4cccc(C(F)F)c4F)nc(C)nc3nc2C)CC1` [Example 56, 1-{4-[4-({(1R)-1-[3-(difluoromethyl)-2-fluorophenyl]ethyl}amino)-2,7-dimethylpyrido[2,3-d]pyrimidin-6-yl]-3,6-dihydropyridin-1(2H)-yl}ethan-1-one], the IC50 stood at 14.1 nM.

Consider `CC(=O)N1CCC(c2cc3c(N[C@H](C)c4cccc(C(F)F)c4F)nc(C)nc3nc2C)CC1` [Example 57, 1-{4-[4-({(1R)-1-[3-(difluoromethyl)-2-fluorophenyl]ethyl}amino)-2,7-dimethylpyrido[2,3-d]pyrimidin-6-yl]piperidin-1-yl}ethan-1-one], for which the IC50 worked out at 9.81 nM.

Regarding `Cc1nc(N[C@H](C)c2cccc(C(F)(F)F)c2C)c2cc(N3CCCS3(=O)=O)c(C)nc2n1` [Example 58, 2-[2,7-dimethyl-4-({(1R)-1-[2-methyl-3-(trifluoromethyl)phenyl]ethyl}amino)pyrido[2,3-d]pyrimidin-6-yl]-1 lambda^6,2-thiazolidine-1,1-dione], the IC50 is 15.9 nM.

On to `Cc1nc(N[C@H](C)c2cccc(C(F)(F)C(C)(C)O)c2F)c2cc(N3CCCS3(=O)=O)c(C)nc2n1` [Example 59, 2-[4-({(1R)-1-[3-(1,1-difluoro-2-hydroxy-2-methylpropyl)-2-fluorophenyl]ethyl}amino)-2,7-dimethylpyrido[2,3-d]pyrimidin-6-yl]-1 lambda^6,2-thiazolidine-1,1-dione], for which the IC50 was 7.23 nM.

In the case of `CC(=O)N1CC2(C1)CN(c1cc3c(N[C@H](C)c4cccc(C(F)(F)C(C)(C)O)c4F)nc(C)nc3nc1C)C2` [Example 60, 1-{6-[4-({(1R)-1-[3-(1,1-difluoro-2-hydroxy-2-methylpropyl)-2-fluorophenyl]ethyl}amino)-2,7-dimethylpyrido[2,3-d]pyrimidin-6-yl]-2,6-diazaspiro[3.3]heptan-2-yl}ethan-1-one], the IC50 was found to be 3410 nM.

In the case of `CC(=O)N1CCN(c2cnc3nc(C)nc(N[C@H](C)c4cccc(C(F)(F)F)c4C)c3c2)C(=O)C1` [Example 61, 4-acetyl-1-[2-methyl-4-({(1R)-1-[2-methyl-3-(trifluoromethyl)phenyl]ethyl}amino)pyrido[2,3-d]pyrimidin-6-yl]piperazin-2-one], the IC50 is 2.53 nM.

For the compound `CC(=O)N1CCC(c2cc3c(N[C@H](C)c4cccc(C(F)(F)C(C)(C)O)c4F)nc(C)nc3nc2C)=C(C)C1` [Example 62, 1-{4-[4-({(1R)-1-[3-(1,1-difluoro-2-hydroxy-2-methylpropyl)-2-fluorophenyl]ethyl}amino)-2,7-dimethylpyrido[2,3-d]pyrimidin-6-yl]-5-methyl-3,6-dihydropyridin-1(2H)-yl}ethan-1-one], the IC50 was 14.5 nM.

Take `CC(=O)N1CC2(C1)CN(c1cc3c(N[C@H](C)c4cccc(C(F)(F)F)c4C)nc(C)nc3nc1C)C2` [Example 63, 1-{6-[2,7-dimethyl-4-({(1R)-1-[2-methyl-3-(trifluoromethyl)phenyl]ethyl}amino)pyrido[2,3-d]pyrimidin-6-yl]-2,6-diazaspiro[3.3]heptan-2-yl}ethan-1-one]: the IC50 came out at 8.66 nM.

For the compound `CC(=O)N1C[C@@H]2C[C@H]1CN2c1cc2c(N[C@H](C)c3cccc(C(F)(F)C(C)(C)O)c3F)nc(C)nc2nc1C` [Example 64, 1-{(1 S,4S)-5-[4-({(1R)-1-[3-(1,1-difluoro-2-hydroxy-2-methylpropyl)-2-fluorophenyl]ethyl}amino)-2,7-dimethylpyrido[2,3-d]pyrimidin-6-yl]-2,5-diazabicyclo[2.2.1]heptan-2-yl}ethan-1-one], the IC50 was determined as 4.35 nM.

Turning to `CC(=O)N1CC=C(c2cc3c(N[C@H](C)c4cccc(C(F)(F)C(C)(C)O)c4F)nc(C)nc3nc2C)CC1` [Example 65, 1-{4-[4-({(1R)-1-[3-(1,1-difluoro-2-hydroxy-2-methylpropyl)-2-fluorophenyl]ethyl}amino)-2,7-dimethylpyrido[2,3-d]pyrimidin-6-yl]-3,6-dihydropyridin-1(2H)-yl}ethan-1-one], the IC50 stood at 5.72 nM.

For `CC(=O)N1CCC(c2cc3c(N[C@H](C)c4cccc(C(F)(F)C(C)(C)O)c4F)nc(C)nc3nc2C)CC1` [Example 66, 1-{4-[4-({(1R)-1-[3-(1,1-difluoro-2-hydroxy-2-methylpropyl)-2-fluorophenyl]ethyl}amino)-2,7-dimethylpyrido[2,3-d]pyrimidin-6-yl]piperidin-1-yl}ethan-1-one], the IC50 was found to be 3.18 nM.

As to `CC(=O)N1CCN(c2cc3c(N[C@H](C)c4cccc(C(F)(F)C(C)(C)O)c4F)nc(C)nc3nc2C)CC1` [Example 67, 1-{4-[4-({(1R)-1-[3-(1,1-difluoro-2-hydroxy-2-methylpropyl)-2-fluorophenyl]ethyl}amino)-2,7-dimethylpyrido[2,3-d]pyrimidin-6-yl]piperazin-1-yl}ethan-1-one], the IC50 worked out at 6.23 nM.

Take `CC(=O)N1CCN(c2cc3c(N[C@H](C)c4cccc(C(F)(F)F)c4C)nc(C)nc3nc2C)C(=O)C1` [Example 68, 4-acetyl-1-[2,7-dimethyl-4-({(1R)-1-[2-methyl-3-(trifluoromethyl)phenyl]ethyl}amino)pyrido[2,3-d]pyrimidin-6-yl]piperazin-2-one]: the IC50 was 2.93 nM.
